Assay results reported in publication PMC9176691, “Design, synthesis and biological evaluation of novel diosgenin–benzoic acid mustard hybrids with potential anti-proliferative activities in human hepatoma HepG2 cells” (Journal of Enzyme Inhibition and Medicinal Chemistry, 2022).
Like-named read-outs stand apart in the source and are kept apart here.

Tests used:
HeLa cells = assay: MTT anti-proliferative assay, HeLa; type: cell-based; conditions: Homo sapiens, read-out: IC50 HeLa
MCF-7 cells = assay: MTT anti-proliferative assay, MCF-7; type: cell-based, human; conditions: Homo sapiens, read-out: IC50 MCF-7
GES-1 cells = assay: MTT cytotoxicity assay, normal GES-1; type: cell-based, human; conditions: for IC50: Homo sapiens, read-out: IC50 GES-1
HepG2 cells = assay: MTT anti-proliferative assay, HepG2; type: cell-based, human; conditions: read-out: IC50 HepG2
[1] = MTT, 48 h treatment, average ± SD of three independent experiments

Q: How did the IC50 (HeLa cells; 48 h) turn out when `C[C@H](CC[C@H]1OC2C[C@H]3[C@@H]4CC=C5C[C@@H](O)CC[C@]5(C)C4CC[C@]3(C)C2[C@@H]1C)COC(=O)c1ccc(N(CCCl)CCCl)cc1` (stereo partly drawn) [Compound 8, (22 R,25R)-3β-hydroxy-5-en-furostan-26–4-(bis(2-chloroethyl)amino)benzoate] was run?
A: > 50 µM

Q: And the IC50 (MCF-7 cells; MCF7, 48 h)?
A: > 50 µM

Q: And the IC50 (GES-1 cells; GES1, 48 h)?
A: > 100 µM

Q: What about the IC50 (HepG2 cells; Homo sapiens, HepG2, 48 h) of the same compound?
A: > 50 µM

Q: With `C[C@H](CC[C@H]1OC2C[C@H]3[C@@H]4CC=C5C[C@@H](OC(=O)c6ccc(N(CCCl)CCCl)cc6)CC[C@]5(C)C4CC[C@]3(C)C2[C@@H]1C)COC(=O)c1ccc(N(CCCl)CCCl)cc1` (stereo partly drawn) [Compound 9, (22 R,25R)-3β-((4-(bis(2-chloroethyl)amino)benzoyl)oxy)-5-en-furostan-26–4-(bis(2-chloroethyl)amino) benzoate] as the compound, how does the IC50 (HeLa cells; 48 h) read?
A: > 50 µM

Q: And the IC50 (MCF-7 cells; MCF7, 48 h)?
A: > 50 µM

Q: And the IC50 (GES-1 cells; GES1, 48 h)?
A: > 100 µM

Q: And the IC50 (HepG2 cells; Homo sapiens, HepG2, 48 h)?
A: > 50 µM

Q: For `CC(=O)O[C@H]1CC[C@@]2(C)C(=CC[C@@H]3C2CC[C@]2(C)C4C(C[C@@H]32)O[C@H](CC[C@@H](C)COC(=O)c2ccc(N(CCCl)CCCl)cc2)[C@H]4C)C1` (stereo partly drawn) [Compound 10, (22 R,25R)-3β-acetoxy-5-en-furostan-26–4-(bis(2-chloroethyl)amino)benzoate], which IC50 (HeLa cells; 48 h) is on record?
A: > 50 µM

Q: What about the IC50 (MCF-7 cells; MCF7, 48 h) of the same compound?
A: 28.1 ± 1.52 µM

Q: What about the IC50 (GES-1 cells; GES1, 48 h) of the same compound?
A: > 100 µM

Q: And the IC50 (HepG2 cells; Homo sapiens, HepG2, 48 h)?
A: > 50 µM

Q: What does the source list for `CC(=O)OC1CCC2(C)C(=CCC3C2CCC2(C)C3CC3OC(CCC(C)C(=O)NCCNC(=O)c4ccc(N(CCCl)CCCl)cc4)C(C)C32)C1` [Compound 14a, (22 R,25R)-(2-aminoethyl-4-(bis(2-chloroethyl)amino)benzamido)-3β-acetoxy-5-en-furostan-26-amide]?
A: IC50 (HeLa cells; 48 h): 17.2 ± 2.81 µM; IC50 (MCF-7 cells; MCF7, 48 h): 48.3 ± 2.21 µM; IC50 (GES-1 cells; GES1, 48 h): > 100 µM; IC50 (HepG2 cells; Homo sapiens, HepG2, 48 h): 10.2 ± 1.01 µM

Q: How did the IC50 (HeLa cells; 48 h) turn out when `CC(=O)OC1CCC2(C)C(=CCC3C2CCC2(C)C3CC3OC(CCC(C)C(=O)NCCCNC(=O)c4ccc(N(CCCl)CCCl)cc4)C(C)C32)C1` [Compound 14b, (22 R,25R)-(3-aminopropyl-4-(bis(2-chloroethyl)amino)benzamido)-3β-acetoxy-5-en-furostan-26-amide] was run?
A: > 100 µM

Q: And the IC50 (MCF-7 cells; MCF7, 48 h)?
A: 30.3 ± 2.08 µM

Q: And the SI (GES-1 cells)?
A: 1.86

Q: What about the IC50 (GES-1 cells; GES1, 48 h) of the same compound?
A: 47 ± 2.34 µM

Q: What about the IC50 (HepG2 cells; Homo sapiens, HepG2, 48 h) of the same compound?
A: 25.3 ± 1.4 µM

Q: What does the source list for `CC(=O)OC1CCC2(C)C(=CCC3C2CCC2(C)C3CC3OC(CCC(C)C(=O)N4CCN(C(=O)c5ccc(N(CCCl)CCCl)cc5)CC4)C(C)C32)C1` [Compound 14e, (22 R,25R)-(1-piperazinyl-4-(bis(2-chloroethyl)amino)benzamido)-3β-acetoxy-5-en-furostan-26-amide]?
A: IC50 (HeLa cells; 48 h): > 50 µM; IC50 (MCF-7 cells; MCF7, 48 h): 42.7 ± 2.25 µM; SI (GES-1 cells): 3.05; IC50 (GES-1 cells; GES1, 48 h): 58.8 ± 1.34 µM; IC50 (HepG2 cells; Homo sapiens, HepG2, 48 h): 19.3 ± 1.29 µM

Q: Which IC50 (HeLa cells; 48 h) does the source give for `CC(CCC1OC2CC3C4CC=C5CC(O)CCC5(C)C4CCC3(C)C2C1C)C(=O)NCCNC(=O)c1ccc(N(CCCl)CCCl)cc1` [Compound 15a, (22 R,25R)-(2-aminoethyl-4-(bis(2-chloroethyl)amino)benzamido)-3β-hydroxy-5-en-furostan-26-amide] here?
A: > 50 µM

Q: And the IC50 (MCF-7 cells; MCF7, 48 h)?
A: > 100 µM

Q: And the SI (GES-1 cells)?
A: 6.28

Q: And the IC50 (GES-1 cells; GES1, 48 h)?
A: 83.2 ± 3.12 µM

Q: And the IC50 (HepG2 cells; Homo sapiens, HepG2, 48 h)?
A: 13.2 ± 1.01 µM

Q: `CC(CCC1OC2CC3C4CC=C5CC(O)CCC5(C)C4CCC3(C)C2C1C)C(=O)NCCCNC(=O)c1ccc(N(CCCl)CCCl)cc1` [Compound 15b, (22 R,25R)-(3-aminopropyl-4-(bis(2-chloroethyl)amino)benzamido)-3β-hydroxy-5-en-furostan-26-amide] was tested. Which IC50 (HeLa cells; 48 h) did it give?
A: 49.8 ± 2.13 µM

Q: And the IC50 (MCF-7 cells; MCF7, 48 h)?
A: 37.2 ± 2.23 µM

Q: What about the SI (GES-1 cells) of the same compound?
A: >7.14

Q: And the IC50 (GES-1 cells; GES1, 48 h)?
A: > 100 µM

Q: What about the IC50 (HepG2 cells; Homo sapiens, HepG2, 48 h) of the same compound?
A: 14 ± 1.15 µM

Q: How did the IC50 (HeLa cells; 48 h) turn out when `CC(CCC1OC2CC3C4CC=C5CC(O)CCC5(C)C4CCC3(C)C2C1C)C(=O)N1CCN(C(=O)c2ccc(N(CCCl)CCCl)cc2)CC1` [Compound 15e, (22 R,25R)-(1-piperazinyl-4-(bis(2-chloroethyl)amino)benzamido)-3β-hydroxy-5-en-furostan-26-amide] was run?
A: 28.5 ± 2.13 µM

Q: And the IC50 (MCF-7 cells; MCF7, 48 h)?
A: > 50 µM

Q: And the IC50 (GES-1 cells; GES1, 48 h)?
A: > 100 µM

Q: And the IC50 (HepG2 cells; Homo sapiens, HepG2, 48 h)?
A: 14 ± 1.12 µM

Q: How did the IC50 (HeLa cells; 48 h) turn out when `CC(CCC1OC2CC3C4CC=C5CC(O)CCC5(C)C4CCC3(C)C2C1C)C(=O)N1CCCN(C(=O)c2ccc(N(CCCl)CCCl)cc2)CC1` [Compound 15f, (22 R,25R)-(4–(1-homopiperazinyl)-4-(bis(2-chloroethyl)amino)benzamido)-3β-hydroxy-5-en-furostan-26-amide] was run?
A: > 50 µM

Q: And the IC50 (MCF-7 cells; MCF7, 48 h)?
A: > 100 µM

Q: And the SI (GES-1 cells)?
A: >5.28

Q: What about the IC50 (GES-1 cells; GES1, 48 h) of the same compound?
A: > 100 µM

Q: And the IC50 (HepG2 cells; Homo sapiens, HepG2, 48 h)?
A: 18.9 ± 0.93 µM

Q: How did the IC50 (HeLa cells; [1]) turn out when `C[C@@H]1CC[C@@]2(OC1)O[C@H]1C[C@H]3[C@@H]4CC=C5C[C@@H](O)CC[C@]5(C)[C@H]4CC[C@]3(C)[C@H]1[C@@H]2C` [Diosgenin] was run?
A: 55.1 ± 2.11 µM

Q: And the IC50 (MCF-7 cells; MCF7, MTT, 48 h treatment, average ± SD of three independent experiments)?
A: 23.9 ± 1.34 µM

Q: And the IC50 (GES-1 cells; GES1, MTT, 48 h treatment, normal gastric epithelial cells, average ± SD of three independent experiments)?
A: > 100 µM

Q: And the SI (GES-1 cells; SI = IC50 for GES-1 cell line/IC50 for HepG2 cell line)?
A: >2.95

Q: And the IC50 (HepG2 cells; Homo sapiens, HepG2, 48 h, MTT, 48 h treatment, average ± SD of three independent experiments)?
A: 32.6 µM

Q: And the IC50 (HepG2 cells; [1])?
A: 33.9 ± 1.37 µM

Q: Which IC50 (HeLa cells; 48 h) does the source give for `CO[C@@]12[C@H](COC(N)=O)C3=C(C(=O)C(C)=C(N)C3=O)N1C[C@@H]1N[C@@H]12` [Mitomycin C, reference compound] here?
A: 22 ± 1.12 µM

Q: And the IC50 (MCF-7 cells; MCF7, 48 h)?
A: 16.7 ± 1.02 µM

Q: And the SI (GES-1 cells)?
A: 0.72

Q: What about the IC50 (GES-1 cells; GES1, 48 h) of the same compound?
A: 23.4 ± 1.11 µM

Q: And the IC50 (HepG2 cells; Homo sapiens, HepG2, 48 h)?
A: 32.6 ± 1.22 µM
